According to US20060160848A1 (priority 2002, published 2006):
Like-named read-outs stand apart in the source and are kept apart here.

Assays:
mouse hepatocytes [1] = test system: mouse hepatocytes
mouse hepatocytes [2] = test: Crotyl alcohol toxicity in isolated mouse hepatocytes (LDH leakage); settings: 500 μM crotyl alcohol; for protection against crotyl alcohol toxicity by other hydrazines: 1-100 μM hydrazine, 1-3 hours
mouse hepatocytes [3] = test: cells; settings: Hepatocyte, 1 h
mouse liver = test: Adduct-trapping in mouse liver proteins (Western blot, immunohistochemistry); assay type: in vivo; settings: for immunohistochemical detection of hydralazine-stabilized acrolein adducts in liver sections: 4 hours after 300 μmol/kg i.p., hydralazine given with allyl alcohol, hydrazone given alone
[4] = pH 7
mouse hepatocytes [5] = test system: mouse hepatocytes; remark: listed apart in the source
mice = test: Allyl alcohol hepatotoxicity in mice (plasma SDH, GPT, hepatic GSH)
acrolein-modified BSA = target: T1, acrolein-modified BSA (Bos taurus, UniProt P02769); test: Cell-free immunoassay for adduct-breaking on acrolein-pretreated BSA; assay type: biochemical, bovine; settings: for adduct-breaking activity (acrolein-lysine adducts in BSA): BSA pretreated with 1 mM acrolein 20 min, 50, 250 and 500 μM test compound, 30 min at 37° C.
T1 construct: a model protein (BSA, bovine serum albumin); from tissue; host or cells: bovine serum (from the protein's name only)
T1 sequence (P02769 25-607): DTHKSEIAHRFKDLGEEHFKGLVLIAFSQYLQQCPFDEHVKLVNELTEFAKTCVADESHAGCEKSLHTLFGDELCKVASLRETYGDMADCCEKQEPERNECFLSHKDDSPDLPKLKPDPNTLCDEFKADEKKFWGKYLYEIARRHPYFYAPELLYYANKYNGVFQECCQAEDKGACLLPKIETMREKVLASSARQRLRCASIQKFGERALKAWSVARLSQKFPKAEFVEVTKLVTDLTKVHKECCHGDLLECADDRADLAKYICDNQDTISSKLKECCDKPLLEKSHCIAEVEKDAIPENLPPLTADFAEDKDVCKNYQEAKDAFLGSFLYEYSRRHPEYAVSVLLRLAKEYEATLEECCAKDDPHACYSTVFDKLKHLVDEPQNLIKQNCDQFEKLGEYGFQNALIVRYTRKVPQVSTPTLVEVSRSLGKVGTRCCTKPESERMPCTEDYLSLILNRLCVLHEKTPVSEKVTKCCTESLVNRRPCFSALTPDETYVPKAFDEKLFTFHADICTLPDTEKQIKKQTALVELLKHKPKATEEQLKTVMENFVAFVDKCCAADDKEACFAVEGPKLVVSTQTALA

mouse hepatocytes [6] = test: Toxicity of smoke extract in mouse hepatocytes (LDH leakage); assay type: cell-based; settings: 50 μM smoke-derived acrolein equivalents; 25, 50 and 100 μM drug; up to 180 min
PC-12 cells = test: Allylamine cytotoxicity in PC-12 cells (MTT)
[7] = hypertensive human subjects, 50 mg oral dose; cited from earlier work
mouse hepatocytes [8] = test system: mouse hepatocytes; remark: listed apart in the source
acrolein-premodified BSA = acrolein-premodified BSA (Bos taurus, UniProt P02769); settings: 1 mM acrolein, then 50 to 500 μM hydralazine 30 min
acrolein-premodified BSA, sequence (P02769 25-607): as above

mouse hepatocytes [9] = test system: mouse hepatocytes; remark: listed apart in the source
mouse hepatocytes [10] = settings: 0.5 mM acrolein; 0.3 to 3 mM hydralazine
[11] = target: bovine pancreas ribonuclease A (Bos taurus, UniProt P61823); settings: 3.2 mM acrolein; 0.3 to 3 mM hydralazine
bovine pancreas ribonuclease A, sequence (P61823 27-150): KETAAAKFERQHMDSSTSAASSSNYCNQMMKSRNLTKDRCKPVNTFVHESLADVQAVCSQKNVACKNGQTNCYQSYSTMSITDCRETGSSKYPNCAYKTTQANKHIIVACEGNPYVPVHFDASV

mouse hepatocytes [12] = settings: 15 min, 3 mM hydralazine alone or 0.5 mM acrolein + 0.3 to 3 mM hydralazine
[13] = Sequestering of crotonaldehyde from buffered solution at 37° C. (HPLC); settings: equimolar scavenger, up to 30 minutes
[14] = read-out: PC50 (concentration producing a 50% decrease in LDH leakage)
[15] = read-out: PC50 (concentration affording 50% reduction in cell killing)
[16] = 200 vs 100 μmol/kg hydralazine, allyl alcohol 90 mg/kg, 60 minutes
[17] = allyl alcohol 90 mg/kg i.p., 4 hours, estimated from dose-response
[18] = hydralazine 200 μmol/kg i.p., allyl alcohol 90 mg/kg

## CCCC(C(=O)OCCN(CC)CC)(c1ccccc1)c1ccccc1 [proadifen]
Mouse hepatocytes [1]
  effect on cyclophosphamide-induced LDH leakage: abolished the cyclophosphamide-induced increase in LDH leakage

## NNCc1ccccc1 [benzylhydrazine]
Mouse hepatocytes [2]
  protection against crotyl alcohol toxicity by other hydrazines: very poor cytoprotection
Mouse hepatocytes [3]; [14]
  EC50: 37 ± 1.8 µM

## C=C/C=N/Nc1nncc2ccccc12 [(1E)-acrylaldehyde 1-[1-phthalazinyl]-hydrazone]
Mouse liver
  immunohistochemical detection of hydralazine-stabilized acrolein adducts in liver sections: no immunorecognition was evident

## CCCCNC [N-methylbutylamine]
Mouse hepatocytes [3]; [14]
  EC50: 6 ± 2.2 µM

## C/C=C/CO [crotyl alcohol]
Mouse hepatocytes [2]; by 3 hours
  cell death induced: 100%

## c1ccc(NNc2ccccc2)cc1 [1,2-diphenylhydrazine]
Mouse hepatocytes [3]; [14]
  EC50: 19 ± 2.6 µM

## c1ccc(Nc2ccc(Nc3ccccc3)cc2)cc1 [N,N′-Diphenyl-p- phenylenediamine, N,N′-Diphenyl-p-phenylenediamine]
Mouse hepatocytes [3]; [14]
  EC50: 4 ± 1.3 µM

## NNc1ccc2ccccc2n1 [hydrazinoquinoline, 2-hydrazinoquinoline]
Mouse hepatocytes [3]; [14]
  EC50: 11 ± 0.44 µM

## NCCCC[C@H](N)C(=O)O [lysine]
[4]
  acrolein removed from solution: approximately 13%

## NNc1cccc2ccccc12 [naphthylhydrazine]
Mouse hepatocytes [3]; [14]
  EC50: 7 ± 0.19 µM

## Nc1ccc(O)cc1 [p-aminophenol]
Mouse hepatocytes [3]; [14]
  EC50: 20 ± 8.5 µM

## C=CCO [allyl alcohol]
Mouse hepatocytes [5]; mouse
  cell death induced: 100%
mice; 90 mg/kg
  fatalities: no fatalities
mice; 90 mg/kg i.p., 4 hours
  decrease in hepatic GSH stores: 65%
  elevation of plasma GPT activity over controls: 24 fold
  elevation of plasma SDH activity over controls: 30 fold
mice; 100 mg/kg
  mortality: 30%

## c1ccc(Nc2ccccc2)cc1 [diphenylamine]
Mouse hepatocytes [3]; [14]
  EC50: 3 ± 1.2 µM

## aminoguanidine
[4]
  acrolein removed from solution: approximately 4%
Mouse hepatocytes [5]; [15]
  EC50: > 10000 µM
Mouse hepatocytes [5]; [14]
  EC50: > 10000 µM
acrolein-modified BSA
  adduct-breaking activity (acrolein-lysine adducts in BSA): lacked adduct-breaking potency

## Nc1ccccc1O [o-aminophenol]
Mouse hepatocytes [3]; [14]
  EC50: 18 ± 3.2 µM

## NNc1nnc(NN)c2ccccc12 [dihydralazine]
Mouse hepatocytes [2]; co-incubated up to 3 hours, 1-100 μM
  protection against crotyl alcohol toxicity (LDH leakage): approximately twice as effective as hydralazine
Mouse hepatocytes [3]; [15]
  EC50: 5.2 ± 1.5 µM
Mouse hepatocytes [3]; [14]
  EC50: 13 ± 0.29 µM
Mouse hepatocytes [6]
  attenuation of LDH leakage caused by smoke extract: completely attenuating LDH leakage at all concentrations examined
[4]
  acrolein removed from solution: ~92%
Mouse hepatocytes [1]
  effect on cyclophosphamide-induced LDH leakage: attenuated the toxicity of cyclophosphamide
Mouse hepatocytes [5]
  attenuation of allyl alcohol toxicity (LDH leakage): strongly attenuated the toxicity of allyl alcohol
  protection against allyl alcohol toxicity (LDH leakage): approximately twice as protective as hydralazine
PC-12 cells; 45 μM allylamine, 24 hr, approximately 1 μM dihydralazine and higher, allylamine alone about 40% of controls
  cell viability restored to: approximately 80%
acrolein-modified BSA
  adduct-breaking activity (acrolein-lysine adducts in BSA): reducing adducts below detectable levels

## Nc1ccccc1 [aniline]
Mouse hepatocytes [3]; [14]
  EC50: 61 ± 20 µM

## NNc1nncc2ccccc12 [hydralazine]
Mouse liver; [16]
  elevation in signal intensity, 26 kDa protein: 2.6 fold
  elevation in signal intensity, 31 kDa protein: 2.4 fold
Mouse liver; 60 minutes after allyl alcohol 90 mg/kg + hydralazine 100 μmol/kg
  adduct-trapping in liver proteins (Western blot): strong adduct-trapping
Mouse liver
  immunohistochemical detection of hydralazine-stabilized acrolein adducts in liver sections: intense adduct-trapping
[7]
  peak plasma level: ~2 µM
Mouse hepatocytes [8]; 100 μM allyl alcohol 25 min, then 5 to 50 μM hydralazine 30 min
  adduct-trapping in cell proteins: intense, concentration-dependent adduct-trapping
Mouse hepatocytes [8]; 37, 40 and 43 kDa proteins, hydralazine 4 to 10 μM, postadduction phase
  increase in band intensity (densitometry): 12- to-200 fold
acrolein-premodified BSA
  adduct-trapping in acrolein-premodified BSA: strong adduct-trapping
Mouse hepatocytes [9]; 1 mM pentenal, 3 hours
  protection against pentenal toxicity: protection was most efficient for pentenal toxicity
Mouse hepatocytes [9]; 1 mM propargyl alcohol, 3 hours, highest concentration used
  concentration achieving complete protection against propargyl alcohol toxicity: 100 µM
Mouse hepatocytes [9]; 10 mM MDA, 12 to 18 hours, highest concentration used
  concentration achieving complete protection against MDA toxicity: 100 µM
Mouse hepatocytes [10]
  cytoprotection against acute acrolein toxicity (LDH leakage): afford cytoprotection
Mouse hepatocytes [3]; [15]
  EC50: 8.3 ± 4 µM
Mouse hepatocytes [3]; [14]
  EC50: 18 ± 0.81 µM
[4]
  acrolein removed from solution: approximately 82%
Mouse hepatocytes [1]
  effect on cyclophosphamide-induced LDH leakage: attenuated the toxicity of cyclophosphamide
Mouse hepatocytes [5]
  attenuation of allyl alcohol toxicity (LDH leakage): strongly attenuated the toxicity of allyl alcohol
  protection against allyl alcohol toxicity (LDH leakage): inhibited this toxicity in a concentration dependent manner
mice; allyl alcohol 90 mg/kg i.p. + hydralazine 300 μmol/kg i.p., 4 hours
  effect on allyl alcohol-induced changes in plasma SDH and GPT activities: almost totally abolishing
mice; [17]
  dose affording half-maximal protection against liver injury (GPT): 80 µmol/kg
  dose affording half-maximal protection against liver injury (SDH): 160 µmol/kg
mice; allyl alcohol 90 mg/kg, hepatoprotective doses up to 300 μmol/kg
  effect on hepatic GSH depletion caused by allyl alcohol: had no effect upon the hepatic GSH depletion
mice; allyl alcohol 100 mg/kg i.p. + hydralazine 100 μmol/kg i.p., 4 hours
  effect on plasma SDH levels: did not alter the levels of SDH
mice; allyl alcohol 100 mg/kg i.p. + hydralazine 200 and 300 μmol/kg i.p., 4 hours
  decrease in plasma SDH activity: 75 to 90%
mice; [18]
  hepatoprotection (plasma SDH), 30 minute delay: hepatoprotective efficacy was diminished
  hepatoprotection (plasma SDH), co-administered or 20 minute delay: strongly hepatoprotective
[11]
  acrolein-lysine adducts in RNase A, added at 30 minutes: abolished the levels of acrolein-lysine adducts
  effect on cross-linked RNase A, added at 120 minutes: incapable of cleaving crosslinked RNase A
  inhibition of RNase A cross-linking, added at 30 minutes: strongly inhibited formation of crosslinked RNase A
PC-12 cells; 100 μM hydralazine + 80 or 100 μM allylamine
  adduct-trapping in PC12 cell proteins (Western blot): intense adduct-trapping reactions
PC-12 cells; 100 μM hydralazine, 20-100 μM allylamine
  protection against allylamine toxicity, added after 4 hour prior exposure: also protected
PC-12 cells; 100 μM hydralazine, 20-100 μM allylamine, overnight
  protection against allylamine toxicity, concurrent exposure: clear protection
Mouse hepatocytes [12]
  intensity of acrolein adduct-containing protein bands: much lower than that seen in control cells
Mouse hepatocytes [12]; listed as Hydralazine
  intensity of acrolein adduct-containing protein bands: decreasing levels of adducted proteins below control values
acrolein-modified BSA; BSA + 1 mM acrolein 15-180 min, then 2 mM hydralazine 30 min
  time acrolein adducts retained susceptibility to cleavage by hydralazine: at least 30 minutes
acrolein-modified BSA
  adduct-breaking activity (acrolein-lysine adducts in BSA): diminished the intensity of acrolein adducted-BSA in a concentration-dependent manner

## NNc1nccc2ccccc12 [hydrazinoisoquinoline, 1-hydrazinoisoquinoline]
Mouse hepatocytes [3]; [14]
  EC50: 6 ± 0.14 µM

## carnosine
[13]
  ability to sequester crotonaldehyde from solution: slightly more effective at removing crotonaidehyde from solution than pyridoxamine
[4]
  acrolein removed from solution: approximately 20%
Mouse hepatocytes [5]; [15]
  EC50: > 10000 µM
Mouse hepatocytes [5]; [14]
  EC50: > 10000 µM
acrolein-modified BSA
  adduct-breaking activity (acrolein-lysine adducts in BSA): lacked adduct-breaking potency

## O=P1(N(CCCl)CCCl)NCCCO1 (stereo not shown) [cyclophosphamide]
Mouse hepatocytes [1]; 18-hr incubation
  concentration producing complete cell death: ≥ 250 µM

## NN(c1ccccc1)c1ccccc1 [1,1-diphenylhydrazine]
Mouse hepatocytes [2]
  protection against crotyl alcohol toxicity by other hydrazines: best protection
Mouse hepatocytes [3]; [14]
  EC50: 2 ± 0.01 µM

## NNc1ccccc1 [phenylhydrazine]
Mouse hepatocytes [3]; [14]
  EC50: 8 ± 0.28 µM

## c1ccc2c(c1)[nH]c1ccccc12 [carbazole]
Mouse hepatocytes [3]; [14]
  EC50: 40 ± 12 µM

## Cc1ncc(CO)c(CN)c1O [pyridoxamine]
Mouse hepatocytes [3]; [15]
  EC50: > 10000 µM
Mouse hepatocytes [3]; [14]
  EC50: > 10000 µM
acrolein-modified BSA
  adduct-breaking activity (acrolein-lysine adducts in BSA): lacked adduct-breaking potency

## NCc1ccccc1 [benzylamine]
Mouse hepatocytes [3]; [14]
  EC50: > 100 µM

## NNc1ccccn1 [hydrazinopyridine, 2-hydrazinopyridine]
Mouse hepatocytes [3]; [14]
  EC50: 40 ± 6.1 µM

## CC(C)NC(C)C [diisopropylamine]
Mouse hepatocytes [3]; [14]
  EC50: 66 ± 15 µM

## NNc1ncnc2ccccc12 [hydrazinoquinazoline, 4-hydrazinoquinazoline]
Mouse hepatocytes [3]; [14]
  EC50: 10 ± 0.05 µM

## C1CCC(NC2CCCCC2)CC1 [dicyclohexylamine]
Mouse hepatocytes [3]; [14]
  EC50: 59 ± 11 µM

## Oc1ccccc1 [phenol]
Mouse hepatocytes [3]; [14]
  EC50: 48 ± 12 µM

## 1,1-dimethylhydrazine
Mouse hepatocytes [5]; [14]
  EC50: > 100 µM

## NC1CCCCC1 [cyclohexylamine]
Mouse hepatocytes [3]; [14]
  EC50: > 100 µM

## Sc1ccccc1 [thiophenol]
Mouse hepatocytes [3]; [14]
  EC50: > 100 µM

## CON [methoxyamine]
Mouse hepatocytes [3]; [15]
  EC50: 9000 ± 1800 µM
Mouse hepatocytes [3]; [14]
  EC50: 9000 ± 1800 µM
[4]
  acrolein removed from solution: around 40%
acrolein-modified BSA
  adduct-breaking activity (acrolein-lysine adducts in BSA): effects were most evident at the top concentration studied

## C=CCN [allylamine]
PC-12 cells; Rattus norvegicus, PC-12, 24 h, read-out: concentration producing 50% cell death
  EC50: ~45 µM

## O=C(O)c1ccccc1O [salicylic acid]
Mouse hepatocytes [3]; [14]
  EC50: 59 ± 11 µM
